Assay results reported in the supplement of paper PMC10307832.

Legend:
Assay in all cases: relative viability (nuclei count vs DMSO), 5 days (fraction); higher = more cells survive
[1] = system: CAL-12T
Method in brief: (§1)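 Lung cancer cell lines in 1536-well plates were dosed by pin tool the day after seeding, either with one drug alone or with a fixed anchor-drug dose plus five library-drug doses (not always all listed) in √10 steps. After 5 days, cells were fixed and their nuclei stained in one step (final 0.05% Triton X-100, 1% formaldehyde, 1 ug/ml Hoechst), then counted on 4× images. Relative viability is the nuclei count in treated wells divided by that in vehicle wells. Values are medians of duplicate plates.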

[2] = system: LK-2
Method in brief: as §1

[3] = system: NCI-H1793
Method in brief: as §1

[4] = system: NCI-H1944
Method in brief: as §1

[5] = system: EKVX
Method in brief: as §1

[6] = system: NCI-H2228
Method in brief: as §1

[7] = system: NCI-H661
Method in brief: as §1

[8] = system: SK-MES-1
Method in brief: as §1

[9] = system: NCI-H1915
Method in brief: as §1

[10] = system: LC-2-ad
Method in brief: as §1

[11] = system: SK-LU-1
Method in brief: as §1

[12] = system: COR-L 105
Method in brief: as §1

[13] = system: NCI-H1395
Method in brief: as §1

[14] = system: EMC-BAC-2
Method in brief: as §1

[15] = system: LXF-289
Method in brief: as §1

[16] = system: H3255
Method in brief: as §1

[17] = system: NCI-H1437
Method in brief: as §1

[18] = system: NCI-H1651
Method in brief: as §1

[19] = system: PC-3 [JPC-3]
Method in brief: as §1

[20] = system: NCI-H2085
Method in brief: as §1

[21] = system: NCI-H2087
Method in brief: as §1

[22] = system: NCI-H2347
Method in brief: as §1

[23] = system: NCI-H1755
Method in brief: as §1

SMILES: O=c1[nH]c2ccccc2n1C1CCN(CCCC(c2ccc(F)cc2)c2ccc(F)cc2)CC1 [Pimozide] + Cc1nc(Nc2ncc(C(=O)Nc3c(C)cccc3Cl)s2)cc(N2CCN(CCO)CC2)n1 [Dasatinib] (partner 0.075 µM)
- relative viability ([1]; first compound 0.08 µM): 0.378
- relative viability ([1]; first compound 0.253 µM): 0.404
- relative viability ([1]; first compound 0.8 µM): 0.415
- relative viability ([1]; first compound 2.53 µM): 0.333
- relative viability ([1]; first compound 8 µM): 0.259
- relative viability ([2]; first compound 0.08 µM): 0.33
- relative viability ([2]; first compound 0.253 µM): 0.273
- relative viability ([2]; first compound 2.53 µM): 0.242
- relative viability ([2]; first compound 8 µM): 0.24
- relative viability ([3]; first compound 0.253 µM): 0.388
- relative viability ([3]; first compound 0.8 µM): 0.343
- relative viability ([3]; first compound 2.53 µM): 0.391
- relative viability ([3]; first compound 8 µM): 0.35
- relative viability ([4]; first compound 0.08 µM): 0.212
- relative viability ([4]; first compound 0.253 µM): 0.203
- relative viability ([4]; first compound 0.8 µM): 0.183
- relative viability ([4]; first compound 2.53 µM): 0.225
- relative viability ([4]; first compound 8 µM): 0.197
- relative viability ([5]; first compound 0.253 µM): 0.489
- relative viability ([5]; first compound 0.8 µM): 0.544
- relative viability ([5]; first compound 2.53 µM): 0.536
- relative viability ([5]; first compound 8 µM): 0.688
- relative viability ([6]; first compound 0.08 µM): 0.524
- relative viability ([6]; first compound 0.253 µM): 0.604
- relative viability ([6]; first compound 0.8 µM): 0.448
- relative viability ([6]; first compound 2.53 µM): 0.345
- relative viability ([6]; first compound 8 µM): 0.315
- relative viability ([7]; first compound 0.08 µM): 0.782
- relative viability ([7]; first compound 0.253 µM): 0.828
- relative viability ([7]; first compound 0.8 µM): 0.826
- relative viability ([7]; first compound 2.53 µM): 0.725
- relative viability ([7]; first compound 8 µM): 0.611
- relative viability ([8]; first compound 0.08 µM): 0.313
- relative viability ([8]; first compound 0.253 µM): 0.41
- relative viability ([8]; first compound 0.8 µM): 0.358
- relative viability ([8]; first compound 2.53 µM): 0.325
- relative viability ([8]; first compound 8 µM): 0.336
- relative viability ([9]; first compound 0.08 µM): 0.328
- relative viability ([9]; first compound 0.253 µM): 0.246
- relative viability ([9]; first compound 0.8 µM): 0.214
- relative viability ([9]; first compound 2.53 µM): 0.322
- relative viability ([9]; first compound 8 µM): 0.303
- relative viability ([10]; first compound 0.08 µM): 0.571
- relative viability ([10]; first compound 0.253 µM): 0.518
- relative viability ([10]; first compound 0.8 µM): 0.447
- relative viability ([10]; first compound 2.53 µM): 0.548
- relative viability ([10]; first compound 8 µM): 0.493
- relative viability ([11]; first compound 0.08 µM): 0.2
- relative viability ([11]; first compound 0.253 µM): 0.21
- relative viability ([11]; first compound 0.8 µM): 0.184
- relative viability ([11]; first compound 2.53 µM): 0.186
- relative viability ([11]; first compound 8 µM): 0.168
- relative viability ([12]; first compound 0.253 µM): 0.427
- relative viability ([12]; first compound 0.8 µM): 0.411
- relative viability ([12]; first compound 2.53 µM): 0.293
- relative viability ([12]; first compound 8 µM): 0.301
- relative viability ([13]; first compound 0.08 µM): 0.388
- relative viability ([13]; first compound 0.253 µM): 0.382
- relative viability ([13]; first compound 0.8 µM): 0.355
- relative viability ([13]; first compound 2.53 µM): 0.403
- relative viability ([13]; first compound 8 µM): 0.361
- relative viability ([14]; first compound 0.08 µM): 0.351
- relative viability ([14]; first compound 0.253 µM): 0.274
- relative viability ([14]; first compound 0.8 µM): 0.331
- relative viability ([14]; first compound 2.53 µM): 0.285
- relative viability ([14]; first compound 8 µM): 0.218
- relative viability ([15]; first compound 0.08 µM): 0.236
- relative viability ([15]; first compound 0.253 µM): 0.277
- relative viability ([15]; first compound 0.8 µM): 0.241
- relative viability ([15]; first compound 2.53 µM): 0.205
- relative viability ([15]; first compound 8 µM): 0.226
- relative viability ([16]; first compound 0.253 µM): 0.355
- relative viability ([16]; first compound 0.8 µM): 0.51
- relative viability ([16]; first compound 2.53 µM): 0.446
- relative viability ([16]; first compound 8 µM): 0.323
- relative viability ([17]; first compound 0.08 µM): 0.483
- relative viability ([17]; first compound 0.253 µM): 0.43
- relative viability ([17]; first compound 0.8 µM): 0.402
- relative viability ([17]; first compound 2.53 µM): 0.289
- relative viability ([17]; first compound 8 µM): 0.249
- relative viability ([18]; first compound 0.08 µM): 0.436
- relative viability ([18]; first compound 0.253 µM): 0.455
- relative viability ([18]; first compound 0.8 µM): 0.388
- relative viability ([18]; first compound 2.53 µM): 0.399
- relative viability ([18]; first compound 8 µM): 0.391
- relative viability ([19]; first compound 0.08 µM): 0.529
- relative viability ([19]; first compound 0.253 µM): 0.912
- relative viability ([19]; first compound 0.8 µM): 0.867
- relative viability ([19]; first compound 2.53 µM): 0.892
- relative viability ([19]; first compound 8 µM): 0.897
- relative viability ([20]; first compound 0.08 µM): 0.209
- relative viability ([20]; first compound 0.253 µM): 0.249
- relative viability ([20]; first compound 0.8 µM): 0.221
- relative viability ([20]; first compound 2.53 µM): 0.232
- relative viability ([20]; first compound 8 µM): 0.257
- relative viability ([21]; first compound 0.08 µM): 0.905
- relative viability ([21]; first compound 0.253 µM): 0.724
- relative viability ([21]; first compound 2.53 µM): 0.642
- relative viability ([21]; first compound 8 µM): 0.672
- relative viability ([22]; first compound 0.253 µM): 0.34
- relative viability ([22]; first compound 0.8 µM): 0.295
- relative viability ([22]; first compound 2.53 µM): 0.349
- relative viability ([22]; first compound 8 µM): 0.343
- relative viability ([23]; first compound 0.08 µM): 0.372
- relative viability ([23]; first compound 0.253 µM): 0.446
- relative viability ([23]; first compound 0.8 µM): 0.426
- relative viability ([23]; first compound 2.53 µM): 0.456
- relative viability ([23]; first compound 8 µM): 0.348
